Measurements taken from patent US20240327372A1, “PREPARATION OF PHENE[…] […] STEREOISOMERS THEREOF AND PRECURSORS THEREOF” (priority 2022, published 2024).

Columns and labels:
DAT [1] = target: T1, DAT (Rattus norvegicus (Rat), UniProt P23977); assay: [3H]Dopamine uptake inhibition in rat brain synaptosomes; assay type: biochemical; conditions: DA
Description: (§1) Materials used were: Neurotransmitters [3H]5-HT (PerkinElmer, NET498001MC) [^3H]Dopamine (PerkinElmer, NET673250UC) [^3H]Norepinephrine (PerkinElmer, NET377250UC); Test Compounds Racemic methylone HCl (Merck, M-140); (R)-methylone HCl (Pisgah Labs); (S)-methylone HCl (Pisgah Labs); Reference Compounds Citalopram (Tocris Bioscience 1427). JHW007 (Tocris Bioscience 4351). Nomifensine (Abcam ab146004).
(§2) Synaptosomes were prepared from Sprague Dawley (200-250 g) rat brain regions (hippocampus for NE, striatum for DA and midbrain for 5-HT) using standard protocols. Tissues were dissected, added to sucrose buffer (0.32 M), homogenized with a dounce-homogenizer and centrifuged at 100×g to remove cells and debris. Supernatant was collected and centrifuged 17,000×g for 10 minutes at 4° C. to pellet the synaptosomes. The pellet was resuspended in fresh assay buffer.
(§3) Uptake assays were carried out in 96-well plates in a final volume of 250 μL per well. To each well was added 150 μL synaptosomes, 50 μL test, non-specific compound or buffer alone. The plate was incubated at 30° C. for 30 minutes with gentle agitation. 50 μL radiolabeled neurotransmitter in buffer was then added to each well to initiate the uptake. The plate was incubated at 30° C. for a further 5 minutes with gentle agitation. The incubation was stopped by vacuum filtration onto presoaked GF/C filters using a 96-well FilterMate™ harvester, followed by 3 washes with ice-cold wash buffer. Filters were then dried under a warm air stream, sealed in polyethylene, scintillation cocktail added, and the radioactivity counted in a Wallac® TriLux 1450 MicroBeta counter.
(§4) For each concentration of drug, non-specific uptake was subtracted from total uptake to give specific uptake. Data was fitted using the non-linear curve fitting routines in Prism® (Graphpad Software Inc) to determine IC50.

cardiac ion channels = assay: In vitro cardiovascular safety screening test (ion channel panel, overall); assay type: cell-based, human; conditions: whole panel
Description: An in vitro cardiovascular safety screening test was run to investigate the effects of racemic methylone and two methylone stereoisomers ((R)-methylone and (S)-methylone) on selected ion channels critically linked to cardiovascular function and activity.
Electrophysiological assays were conducted to profile three compounds ((R)-methylone, (S)-methylone, or racemic methylone) for activities on the ion channel targets specified below using the Qube electrophysiological platform. Where presented, IC50 values were determined by a non-linear, least squares regression analysis. Reference standards were run as an integral part of each assay to ensure the validity of the results obtained.
Ion Channels tested were Eurofins Panel Part Number: CPROFullQB2DR Voltage-Gated Sodium: HEK-Nav1.5 (Peak), HEK-Nav1.5 (Late, Antagonist) Voltage-Gated Potassium: HEK-Kv4.3/KChIP2, CHO-hERG, CHO-KCNQ1/minK Voltage-Gated Calcium: HEK-Cav1.2 Inward-Rectifying Voltage-Gated Potassium: HEK-Kir2.1.

[2] = tested on: rat forced swim test (FST); assay: Rat forced swim test (FST); assay type: in vivo; conditions: 10 mg/kg, IP
Description: All FST studies are performed and scored by an experimenter blind to treatment group and according to standard protocols. Briefly, rats are placed in a circular plexiglass container filled with water. Water temperature is maintained at 22-25° C. and changed for every animal. Day 1 (Training) consists of a 15 min acclimation trial, and Day 2 (Testing, 24 h later) consists of the 5 min test. A time sampling procedure is employed where animals are observed every 5 seconds for the duration of the test session (60 counts or 5 minutes) and scored for immobility (defined as the failure to struggle), swimming (defined as a circular movement around the tank), or climbing (defined as an upwards escape behavior). Data are expressed as the percent of the testing session (e.g., the number of immobility counts divided by 60). A p-value less than 0.05 indicates statistical significance after typical statistical analyses (e.g., unpaired t-test or ANOVA).
To determine that the prodrug and/or enantiomer has an antidepressant-like effect and to compare it to methylone, rats are treated with each compound 30 min prior to testing. Additional tests are run 24, 72, 168 hours post-dose or longer.
Racemic methylone (10 mg/kg, IP) has a maximal antidepressant-like effect in the rat forced swim test (FST), reducing immobility by nearly 100% compared to vehicle treated controls. To determine whether one enantiomer of methylone could mimic the robust antidepressant-like effect of racemic methylone, rats were treated with a single dose of racemic methylone, (R)-methylone, (S)-methylone (all 10 mg/kg, IP) or vehicle 30 min before testing in the FST. […] Therefore, all of the activity of methylone appears to be driven by the activity of one enantiomer ((S)-methylone).

[3] = target: serotonin transporter (SERT) (Rattus norvegicus (Rat), UniProt P31652); assay: Competition radioligand binding, [3H]Citalopram, rat brain membranes; conditions: 5-HT transporter
From the text: (§5) Rat brain (Sprague Dawley, 200-250 g) synaptosomes were isolated from midbrain and hindbrain for serotonin transporter assays, striatum for dopamine transporter assays, and hippocampus plus overlying occipital cortex for norepinephrine transporter assays. Radioligands used were: [^3H]Citalopram 81.4 Ci/mmol (PerkinElmer NET1039250UC; Lot No. 2960876). [^3H]WIN35428 82.8 Ci/mmol (PerkinElmer NET1033250UC; Lot No. 2891473). [^3H]Nisoxetine 79.2 Ci/mmol (PerkinElmer NET1084250UC; Lot No. 2970324). Non-specific compounds used were: Citalopram (Tocris Bioscience 1427). JHW007 (Tocris Bioscience 4351). Nomifensine (Abcam ab146004). Test Compounds for the study were: racemic methylone HCl; (R)-methylone HCl; (S)-methylone HCl.
(§6) For membrane preparations, rat brains were dissected, tissue was added to ice-cold lysis buffer (50 mM Tris HCl; 5 mM MgCl2; 5 mM EDTA; protease inhibitor cocktail) and homogenized. The homogenate was centrifuged at 100×g for 2 minutes and the supernatant divided into polypropylene Eppendorf tubes. The supernatants were centrifuged at 17,000×g for 10 minutes at 4° C. to re-pellet the cell lysate. The pellet was resuspended in fresh wash buffer (50 mM Tris-HCl; 5 mM MgCl2; 5 mM EDTA) and centrifuged a third time at 17,000×g for 10 minutes at 4° C. The pellet was resuspended in wash buffer containing 10% sucrose as a cryoprotectant, divided into aliquots (0.3 mL) and stored at −80° C. A sample of the homogenate was analyzed for protein content using the MERCK® BCA assay. On the day of the assay, the membrane preparation was thawed and the pellet resuspended in final assay buffer.
(§7) Competition binding assays were carried out in 96-well polypropylene plates in a final volume of 250 μL per well. To each well was added 150 μL membranes, 50 μL of test compound, non-specific compound or buffer, and 50 μL radioligand solution in buffer. The plate was incubated at 30° C. for 90 minutes with gentle agitation. The incubation was stopped by vacuum filtration onto presoaked (wash buffer with PEI) GF/C filters using a 96-well FILTERMATE™ harvester, followed by 5 washes with ice-cold wash buffer. Filters were then dried under a warm air stream, sealed in polyethylene, scintillation cocktail added, and the radioactivity counted in a WALLAC® TriLux 1450 MicroBeta counter. For each concentration of drug, non-specific binding was subtracted from total binding to give specific binding. Data was fitted using the non-linear curve fitting routines in PRISM® (Graphpad Software Inc) to determine IC50. Ki was subsequently calculated using the ChengPrusoff equation.

SERT [4] = target: T2, SERT (Rattus norvegicus (Rat), UniProt P31652); assay: 5-HT release study; assay type: biochemical
[5] = target: norepinephrine transporter (NET); assay: Competition radioligand binding, [3H]Nisoxetine, rat brain membranes; conditions: NE transporter
From the text: as §5, §6, §7

NET [6] = assay: NE release study; assay type: biochemical
DAT [7] = target: T1, DAT; assay: DA release study; assay type: biochemical
[8] = target: dopamine transporter (DAT) (Rattus norvegicus (Rat), UniProt P23977); assay: Competition radioligand binding, [3H]WIN35428, rat brain membranes; conditions: DA transporter
From the text: as §5, §6, §7

NET [9] = assay: [3H]Norepinephrine uptake inhibition in rat brain synaptosomes; assay type: biochemical; conditions: NE
Description: as §1, §2, §3, §4

SERT [10] = target: T2, SERT; assay: [3H]5-HT uptake inhibition in rat brain synaptosomes; assay type: biochemical
Description: as §1, §2, §3, §4

[11] = self-administration, healthy volunteers; cited from earlier work
mouse model of PTSD = conditions: 7.5 mg/kg, 30 minutes prior to extinction training; Young et al. 2015; cited from earlier work

SMILES: CNC(C)C(=O)c1ccc2c(c1)OCO2 (racemic) [Racemic methylone]
- IC50 (DAT [1]): 1430 nM
- Effect on the cardiac ion channels tested (cardiac ion channels): do not directly inhibit the activity of cardiac channels
- Reduction of immobility compared to vehicle treated controls [2]: ~100%
- IC50 [3]: 12300 nM
- Ki ([3]; Cheng-Prusoff): 7440 nM
- EC50 (SERT [4]): 620 nM
- IC50 [5]: 3100 nM
- Ki ([5]; Cheng-Prusoff): 1460 nM
- EC50 (NET [6]): 330 nM
- EC50 (DAT [7]): 4790 nM
- IC50 [8]: 7110 nM
- Ki ([8]; Cheng-Prusoff): 3530 nM
- IC50 (NET [9]): 355 nM
- IC50 (SERT [10]): 811 nM

SMILES: CNC(C)Cc1ccc2c(c1)OCO2 (stereo not shown) [MDMA, 3,4-methylenedioxymethamphetamine, reference compound]
- Systolic and diastolic blood pressure [11]: significant increase
- Reduced freezing compared to saline injected controls (extinction recall) (mouse model of PTSD): 35%
